In patent US10689377B2 (Mirati Therapeutics, Inc., priority 2017, dated 2020):

Molecular target: KRas G12C (Homo sapiens, UniProt P01116, G12C)
Assay: Cellular inhibition of KRas G12C measured by Phospho-ERK in NCI-H358 cells
Format: cell-based
Details: pERK(Thr202/Tyr204) normalized with GAPDH, NCI-H358 cells, 3 hours; read-out: IC50
Outline: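 Readout is pERK(Thr202/Tyr204) immunofluorescence normalized to GAPDH, expressed as percent of DMSO control and fitted with a 4-parameter curve for IC50. Attached NCI-H358 cells received compound for 3 hours in 0.5% DMSO, followed by fixation and methanol permeabilization.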

KRas G12C, sequence (P01116 1-188 isoform P01116-2 G12C): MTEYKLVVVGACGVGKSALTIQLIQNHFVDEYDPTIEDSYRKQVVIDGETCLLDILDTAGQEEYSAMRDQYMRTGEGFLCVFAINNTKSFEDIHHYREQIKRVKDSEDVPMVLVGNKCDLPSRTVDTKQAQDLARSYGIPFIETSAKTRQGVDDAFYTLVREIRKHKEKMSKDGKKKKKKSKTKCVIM

| Structure (SMILES) | IC50 [nM] |
| --- | --- |
| C=CC(=O)N1CCN(c2nc(OCCCN3CCN(C(C)=O)CC3)nc3c2CCN(c2cc(O)cc4ccccc24)C3)CC1 [Example 135, 1-[4-[2-[3-(4-acetylpiperazin-1-yl)propoxy]-7-(3-hydroxy-1-naphthyl)-6,8-dihydro-5H-pyrido[3,4-d]pyrimidin-4-yl]piperazin-1-yl]prop-2-en-1-one] | 0.1 to 1000 |
| C=CC(=O)N1CCN(c2nc(OCCN3CCC(OC)C3)nc3c2CCN(c2cc(O)cc4ccccc24)C3)CC1 (stereo not drawn) [Example 136, 1-[4-[7-(3-hydroxy-1-naphthyl)-2-[2-(3-methoxypyrrolidin-1-yl)ethoxy]-6,8-dihydro-5H-pyrido[3,4-d]pyrimidin-4-yl]piperazin-1-yl]prop-2-en-1-one] | > 1000 |
| C=CC(=O)N1CCN(c2nc(OCCCN3CCC(OC)C3)nc3c2CCN(c2cc(O)cc4ccccc24)C3)CC1 (stereo not drawn) [Example 137, 1-[4-[7-(3-hydroxy-1-naphthyl)-2-[3-(3-methoxypyrrolidin-1-yl)propoxy]-6,8-dihydro-5H-pyrido[3,4-d]pyrimidin-4-yl]piperazin-1-yl]prop-2-en-1-one] | > 1000 |
| C=CC(=O)N1CCN(c2nc(OCCN3CC(F)(F)C3)nc3c2CCN(c2cc(O)cc4ccccc24)C3)CC1 [Example 138, 1-[4-[2-[2-(3,3-difluoroazetidin-1-yl)ethoxy]-7-(3-hydroxy-1-naphthyl)-6,8-dihydro-5H-pyrido[3,4-d]pyrimidin-4-yl]piperazin-1-yl]prop-2-en-1-one] | > 1000 |
| C=CC(=O)N1CCN(c2nc(OCCN3CCC(F)(F)C3)nc3c2CCN(c2cc(O)cc4ccccc24)C3)CC1 [Example 139, 1-[4-[2-[2-(3,3-difluoropyrrolidin-1-yl)ethoxy]-7-(3-hydroxy-1-naphthyl)-6,8-dihydro-5H-pyrido[3,4-d]pyrimidin-4-yl]piperazin-1-yl]prop-2-en-1-one] | > 1000 |
| C=CC(=O)N1CCN(c2nc(OCC3CCN(CC(=O)N(C)C)C3)nc3c2CCN(c2cc(O)cc4ccccc24)C3)CC1 (stereo not drawn) [Example 140, 2-[3-[[7-(3-hydroxy-1-naphthyl)-4-(4-prop-2-enoylpiperazin-1-yl)-6,8-dihydro-5H-pyrido[3,4-d]pyrimidin-2-yl]oxymethyl]pyrrolidin-1-yl]-N,N-dimethyl-acetamide] | > 1000 |
| C=CC(=O)N1CCN(c2nc(OCC3CCN(CCO)C3)nc3c2CCN(c2cc(O)cc4ccccc24)C3)CC1 (stereo not drawn) [Example 141, 1-[4-[2-[[1-(2-hydroxyethyl)pyrrolidin-3-yl]methoxy]-7-(3-hydroxy-1-naphthyl)-6,8-dihydro-5H-pyrido[3,4-d]pyrimidin-4-yl]piperazin-1-yl]prop-2-en-1-one] | > 1000 |
| C=CC(=O)N1CCN(c2nc(OCCO)nc3c2CCN(c2cc(O)cc4ccccc24)C3)CC1 [Example 142, 1-[4-[2-(2-hydroxyethoxy)-7-(3-hydroxy-1-naphthyl)-6,8-dihydro-5H-pyrido[3,4-d]pyrimidin-4-yl]piperazin-1-yl]prop-2-en-1-one] | > 1000 |
| C=CC(=O)N1CCN(c2nc(OCC(O)CO)nc3c2CCN(c2cc(O)cc4ccccc24)C3)CC1 (stereo not drawn) [Example 143, 1-[4-[2-(2,3-dihydroxypropoxy)-7-(3-hydroxy-1-naphthyl)-6,8-dihydro-5H-pyrido[3,4-d]pyrimidin-4-yl]piperazin-1-yl]prop-2-en-1-one] | > 1000 |
| C=CC(=O)N1CCN(c2nc(OC[C@@H]3CCCN3CCOC)nc3c2CCN(c2cc(O)cc4ccccc24)C3)CC1 [Example 144, (S)-1-(4-(7-(3-hydroxynaphthalen-1-yl)-2-((1-(2-methoxyethyl)pyrrolidin-2-yl)methoxy)-5,6,7,8-tetrahydropyrido[3,4-d]pyrimidin-4-yl)piperazin-1-yl)prop-2-en-1-one] | 0.1 to 1000 |
| C=CC(=O)N1CCN(c2nc(OC[C@@H]3CCCN3C(C)C)nc3c2CCN(c2cc(O)cc4ccccc24)C3)CC1 [Example 145, 1-[4-[7-(3-hydroxy-1-naphthyl)-2-[[(2S)-1-isopropylpyrrolidin-2-yl]methoxy]-6,8-dihydro-5H-pyrido[3,4-d]pyrimidin-4-yl]piperazin-1-yl]prop-2-en-1-one] | 0.1 to 1000 |
| C=CC(=O)N1CCN(c2nc(OC[C@@H]3CCNC3)nc3c2CCN(c2cc(O)cc4ccccc24)C3)CC1 [Example 146, 1-[4-[7-(3-hydroxy-1-naphthyl)-2-[[(3R)-pyrrolidin-3-yl]methoxy]-6,8-dihydro-5H-pyrido[3,4-d]pyrimidin-4-yl]piperazin-1-yl]prop-2-en-1-one] | > 1000 |
| C=CC(=O)N1CCN(c2nc(O[C@H](C)CN(C)C)nc3c2CCN(c2cc(O)cc4ccccc24)C3)CC1CC#N (stereo partly drawn) [Example 150, 2-(1-acryloyl-4-(2-(((R)-1-(dimethylamino)propan-2-yl)oxy)-7-(3-hydroxynaphthalen-1-yl)-5,6,7,8-tetrahydropyrido[3,4-d]pyrimidin-4-yl)piperazin-2-yl)acetonitrile] | 0.1 to 1000 |
| C=CC(=O)N1CCN(c2nc(O[C@H](C)CN(C)C)nc3c2CCN(c2cccc4ccccc24)C3)CC1CC#N (stereo partly drawn) [Example 151, 2-(1-acryloyl-4-(2-(((R)-1-(dimethylamino)propan-2-yl)oxy)-7-(naphthalen-1-yl)-5,6,7,8-tetrahydropyrido[3,4-d]pyrimidin-4-yl)piperazin-2-yl)acetonitrile] | > 1000 |
| C=CC(=O)N1CCN(c2nc(O[C@H](C)CN(C)C)nc3c2CCN(c2c(C)ccc4[nH]ncc24)C3)CC1CC#N (stereo partly drawn) [Example 152, 2-[4-[2-[(1R)-2-(dimethylamino)-1-methyl-ethoxy]-7-(5-methyl-1H-indazol-4-yl)-6,8-dihydro-5H-pyrido[3,4-d]pyrimidin-4-yl]-1-prop-2-enoyl-piperazin-2-yl]acetonitrile] | 0.1 to 1000 |
| C=CC(=O)N1CCN(c2nc(OCCCN3C[C@@H]4C[C@H]3CO4)nc3c2CCN(c2cc(O)cc4ccccc24)C3)CC1CC#N (stereo partly drawn) [Example 153, 2-[4-[7-(3-hydroxy-1-naphthyl)-2-[3-[(1S,4S)-2-oxa-5-azabicyclo[2.2.1]heptan-5-yl]propoxy]-6,8-dihydro-5H-pyrido[3,4-d]pyrimidin-4-yl]-1-prop-2-enoyl-piperazin-2-yl]acetonitrile] | 0.1 to 1000 |
| C=CC(=O)N1CCN(c2nc(OCCCN3C[C@@H]4C[C@H]3CO4)nc3c2CCN(c2cccc4ccccc24)C3)CC1CC#N (stereo partly drawn) [Example 154, 2-[4-[7-(1-naphthyl)-2-[3-[(1S,4S)-2-oxa-5-azabicyclo[2.2.1]heptan-5-yl]propoxy]-6,8-dihydro-5H-pyrido[3,4-d]pyrimidin-4-yl]-1-prop-2-enoyl-piperazin-2-yl] acetonitrile] | 0.1 to 1000 |
| C=CC(=O)N1CCN(c2nc(OC[C@@H]3CCCN3C)nc3c2CCN(c2c(C(F)(F)F)ccc4[nH]ncc24)C3)CC1 [Example 156, (S)-1-(4-(2-((1-methylpyrrolidin-2-yl)methoxy)-7-(5-(trifluoromethyl)-1H-indazol-4-yl)-5,6,7,8-tetrahydropyrido[3,4-d]pyrimidin-4-yl)piperazin-1-yl)prop-2-en-1-one] | 0.1 to 1000 |
| C=CC(=O)N1CCN(c2nc(OC[C@@H]3CCCN3C)nc3c2CCN(c2c(OC)ccc4[nH]ncc24)C3)CC1 [Example 157] | > 1000 |
| C=CC(=O)N1CCN(c2nc(OC[C@@H]3CCCN3C)nc3c2CCN(c2ccccc2C(F)(F)F)C3)CC1 [Example 159, (S)-1-(4-(2-((1-methylpyrrolidin-2-yl)methoxy)-7-(2-(trifluoromethyl)phenyl)-5,6,7,8-tetrahydropyrido[3,4-d]pyrimidin-4-yl)piperazin-1-yl)prop-2-en-1-one] | > 1000 |
| C=CC(=O)N1CCN(c2nc(OCCCN3CCCCC3)nc3c2CCN(c2c(C)ccc4[nH]ncc24)C3)CC1 [Example 160, 1-(4-(7-(5-methyl-1H-indazol-4-yl)-2-(3-(piperidin-1-yl)propoxy)-5,6,7,8-tetrahydropyrido[3,4-d]pyrimidin-4-yl)piperazin-1-yl)prop-2-en-1-one] | > 1000 |
| C=CC(=O)N1CCN(c2nc(OCC3CCN(C)C3)nc3c2CCN(c2c(C)ccc4[nH]ncc24)C3)CC1 (stereo not drawn) [Example 161, 1-[4-[7-(5-methyl-1H-indazol-4-yl)-2-[(1-methylpyrrolidin-3-yl)methoxy]-6,8-dihydro-5H-pyrido[3,4-d]pyrimidin-4-yl]piperazin-1-yl]prop-2-en-1-one] | > 1000 |
| C=CC(=O)N1CCN(c2nc(O[C@H](C)CN(C)C)nc3c2CCN(c2c(C)ccc4[nH]ncc24)C3)CC1 [Example 162, 1-[4-[2-[(1R)-2-(dimethylamino)-1-methyl-ethoxy]-7-(5-methyl-1H-indazol-4-yl)-6,8-dihydro-5H-pyrido[3,4-d]pyrimidin-4-yl]piperazin-1-yl]prop-2-en-1-one] | > 1000 |
| C=CC(=O)N1CCN(c2nc(OCCN(CC)CC)nc3c2CCN(c2c(C)ccc4[nH]ncc24)C3)CC1 [Example 163, 1-(4-(2-(2-(diethylamino)ethoxy)-7-(5-methyl-1H-indazol-4-yl)-5,6,7,8-tetrahydropyrido[3,4-d]pyrimidin-4-yl)piperazin-1-yl)prop-2-en-1-one] | > 1000 |
| C=CC(=O)N1CCN(c2nc(OCCN3CCCCC3)nc3c2CCN(c2c(C)ccc4[nH]ncc24)C3)CC1 [Example 164] | > 1000 |
| C=CC(=O)N1CCN(c2nc(OCCCN3CCOCC3)nc3c2CCN(c2cc(O)cc4ccccc24)C3)C(CO)C1 (stereo not drawn) [Example 168, 1-(3-(hydroxymethyl)-4-(7-(3-hydroxynaphthalen-1-yl)-2-(3-morpholinopropoxy)-5,6,7,8-tetrahydropyrido[3,4-d]pyrimidin-4-yl)piperazin-1-yl)prop-2-en-1-one] | > 1000 |
| C=CC(=O)N1CCN(c2nc(OC[C@@H]3CCCN3C)nc3c2CCN(c2cc(O)cc4ccccc24)C3)C(CO)C1 (stereo partly drawn) [Example 169, 1-[3-(hydroxymethyl)-4-[7-(3-hydroxy-1-naphthyl)-2-[[(2S)-1-methylpyrrolidin-2-yl]methoxy]-6,8-dihydro-5H-pyrido [3,4-d]pyrimidin-4-yl]piperazin-1-yl]prop-2-en-1-one] | 0.1 to 1000 |
